The structures appear in SMILES notation.

Assay type in all cases: cell-based, mouse
One assay concerns reprogrammable MEFs. The assay is described as follows: Reprogramming of reprogrammable MEFs seeded in bulk, dox-independent colonies. The note with it: six days dox plus compound, then three days unsupplemented ESC media. The method, then:
(§1) MEFs (Stadtfeld et al., 2008) and hepatoblasts (Gailhouste, 2012) were isolated from E14.5 embryos and GMPs, CMPs, MEP and LSK cells from either fetal liver or adult bone marrow (Akashi et al., 2000). All cell types used for reprogramming experiments were heterozygous for the inducible OKSM cassette, Rosa26-rtTA and the Oct4-GFP reporter. MEFs were expanded in reduced-oxygen conditions (4%) and used at passages 1 or 2. For reprogramming, cells were seeded in ESC media (DMEM with 15% FBS, L-glutamin, penicillin-streptomycin, nonessential amino acids, β-mercaptoethanol and 1000 U/ml LIF) at the desired density on a layer of irradiated feeder cells in presence of 1 mg/ml doxycycline. If applicable, L-Ascorbic acid (50 ng/μl), CHIR99021 (3 μM), TGFβ RI Kinase Inhibitor II (250 nM) and PD032590 (0.75 μM) were added. For GMPs and other blood progenitors, cultures were supplemented with Flt3-ligand (10 ng/ml) and SCF (20 ng/ml) for the first three days of reprogramming. Media was replenished every two days. To facilitate detection of Oct4-GFP expression in nascent colonies by fluorescent microscopy, reprogramming experiments were conducted in ESC media prepared with FluoroBrite DMEM (Life Technologies) when required. To score factor-independent colonies, dox (and other compounds) were removed by washing cultures twice with PBS and then maintaining them in ESC media for at least three days before colonies were counted by fluorescence microscopy or after alkaline phosphatase staining (Vector Laboratories). For quantification of Oct4-GFP expression, cultures were harvested by trypsin digestion, stained with DAPI or 7-AAD to exclude dead cells, acquired on a LSRII cytometer (BD Biosciences) and analyzed with FlowJo software (Tree Star Inc.).
The aforementioned compounds were tested using “reprogrammable MEFs” (Stadtfeld et al., 2010) engineered to express a doxycycline (dox)-inducible cassette encoding OKSM (Sommer et al., 2009) from a single defined genomic position and a GFP reporter from the endogenous Oct4 locus, whose expression is a hallmark of the pluripotent state. […]

The subject of assay [1] is GMPs. The assay is described as follows: Bulk reprogramming of granulocyte-macrophage progenitors, dox-independent colonies. The procedure: as §1, with “For GMPs and other blood progenitors, cultures were supplemented with Flt3-ligand (10 ng/ml) and SCF (20 ng/ml) for the first three days of reprogramming. Media was replenished every two days. To facilitate detection of Oct4-GFP expression in nascent colonies by fluorescent microscopy, reprogramming experiments were conducted in ESC media prepared with FluoroBrite DMEM (Life Technologies) when required.” left out, “Inc.). […]” for “Inc.).”

Assay [2] deals with SSEA1+ day 4 intermediates of reprogrammable MEFs. The assay is described as follows: Microarray and gene ontology analysis of day 4 reprogramming intermediates. The note with it: individual chemical.
Description: For the study of reprogramming intermediates, cultures of reprogrammable MEFs at day 4 in presence of OKSM expression were harvested and stained with biotinylated anti-SSEA1 antibody (MC-480, eBioscience), followed by APC-conjugated Streptavidin and anti-APC microbeads (Milteny Biotec). SSEA1^+ cells were enriched to ˜90% purity using MACS separation columns (Milteny Biotec) according to the manufacturer's instructions. Total RNA extracted with the miRNeasy mini kit (QIAGEN) with a RIN value >8 was subjected to transcriptional analyses with Affymetrix mouse genome 430 2.0 mRNA expression microarrays followed by bioinformatic analyses.
Pair-wise differential expression of MEFs, ESCs, GMPs and HEPs was assessed using a t-test and the resulting p-values were adjusted for multiple hypothesis testing as by the Benjamini & Hochberg procedure. […] FDR was assessed using the following methodology. […] Briefly, differential expression was assessed for every Affymetrix transcript probe between samples. As a preprocessing step, quantiles were normalized across samples and replicates, and subsequently fold changes were computed for each probe across the two replicates of each sample. The false discovery rate was computed by comparing the distribution of fold changes against the distribution of fold changes between replicates of the same sample.
The subject of another assay is β-catenin. The assay is described as follows: β-catenin immunofluorescence in GMPs. The following applies: purified GMPs cultured in CHIR, two days. The text has this: FIG. 8A-8G. Related to FIG. 3. (8A) Fluorescence images of DsRed and Oct4-GFP expression in a representative GMP-derived colony derived upon culture in dox+CHIR for six days. (8B) Percentage of Oct4-GFP^+ cells in successfully reprogramming colonies after single cell seeding of GMPs in dox+CHIR or dox+3c, respectively (n=10 clonal colonies for each condition). (8C) AP staining of dox-independent colonies derived from LSK, GMP, MEP and CMPs in dox, dox+CHIR or dox+3c after six days of culture. (8D) Percentage of Oct4-GFP^+ cells in colonies obtained after single cell seeding of hepatoblasts and culture under the indicated conditions for six days (n=10 clonal colonies). (8E) IF images of β-catenin staining in cells derived from GMPs cultured under dox or dox+CHIR for two days. White arrows highlight representative cells positive for β-catenin expression. […]
Cells were fixed with paraformaldehyde, permeabilized and stained with primary antibodies against Oct4 (Santa Cruz, sc-8628), Nanog (Abcam, ab808992), Utf1 (Abcam, ab24273), Sall4 (Abcam, ab29112), Lin28 (Abcam, ab46020) and β-catenin (Sigma, C7207) followed by staining with appropriate secondary antibodies conjugated to either Alexa Fluor 555 or 647 (Invitrogen). Images were acquired with a Neo 5.5 cSMOS camera (Andor) and processed and analyzed using NIS-Elements and Adobe Photoshop. […]

For another assay, the system named is hepatoblasts. The assay is described as follows: Reprogramming of hepatoblasts, dox-independent colonies. The note with it: compound alone. The method, then: as §1, with “For GMPs and other blood progenitors, cultures were supplemented with Flt3-ligand (10 ng/ml) and SCF (20 ng/ml) for the first three days of reprogramming. Media was replenished every two days. To facilitate detection of Oct4-GFP expression in nascent colonies by fluorescent microscopy, reprogramming experiments were conducted in ESC media prepared with FluoroBrite DMEM (Life Technologies) when required.” left out, “Inc.). […]” for “Inc.).”

The test system of assay [3] is GMPs. The assay is described as follows: Single cell seeding of DsRed GMPs, Oct4-GFP expression. The following applies: flow cytometry, six days. The method, then:
as §1, with “For GMPs and other blood progenitors, cultures were supplemented with Flt3-ligand (10 ng/ml) and SCF (20 ng/ml) for the first three days of reprogramming. Media was replenished every two days. To facilitate detection of Oct4-GFP expression in nascent colonies by fluorescent microscopy, reprogramming experiments were conducted in ESC media prepared with FluoroBrite DMEM (Life Technologies) when required.” left out, “Inc.). […]” for “Inc.).”
For orientation: A flow cytometer gives signals particle by particle.

With `O=C1O[C@H]([C@@H](O)CO)C(O)=C1O` [AA, ascorbic acid], the “dox-independent colonies, efficiency of input cells” value (from here on “dox-independent colonies”) in the assay on reprogrammable MEFs is reported as “about 2%”. Moreover, the “effect on iPSC formation from blood progenitor cells” value in the assay with GMPs [1] was “did not significantly enhance”. Also, the “aspect of the somatic program whose silencing is facilitated (GO analysis)” value in assay [2] is reported as “mesodermal differentiation potential”.
Turning to `Cc1c[nH]c(-c2cnc(NCCNc3ccc(C#N)cn3)nc2-c2ccc(Cl)cc2Cl)n1` [CHIR], the “dox-independent colonies” value in the assay with reprogrammable MEFs worked out at 0.5%. Besides, the β-catenin protein level entry in the assay with β-catenin was “rapidly accumulated”. The “effect on number of iPSC colonies from hepatoblasts” value in the assay with hepatoblasts is “little beneficial effect”. The “average GFP labeling index (Oct4-GFP+ cells in colonies)” value with GMPs [3] was “over 90%”.
For the molecule `Cc1cccc(-c2[nH]ncc2-c2ccc3ncccc3n2)n1` [iAlk5], in the assay with reprogrammable MEFs, the “dox-independent colonies” value is reported as “about 2%”. Also, the “aspect of the somatic program whose silencing is facilitated (GO analysis)” value in assay [2] is “collagen synthesis”.

Source of the values: patent US10443043B2, “Methods for making induced pluripotent stem cells” (NEW YORK UNIVERSITY, priority 2015, dated 2019).
